Experimental data as given in BindingDB's records for doi:10.1016/j.bmc.2020.115716 (Chemical Diversity Research Institute, 2020).

Legend:
[1] = Inhibition of HCV genotype 1a NS5A infected in Huh7 cells assessed as reduction in viral replication incubated 3 days and measured by bright Glo-luciferase reporter gene assay
[2] = Inhibition of HCV genotype 3a NS5A infected in Huh7 cells assessed as reduction in viral replication incubated 3 days and measured by bright Glo-luciferase reporter gene assay
[3] = Inhibition of HCV genotype 1b NS5A infected in Huh7 cells assessed as reduction in viral replication incubated 3 days and measured by Bright-Glo luciferase assay
[4] = Inhibition of HCV genotype 5a NS5A infected in Huh7 cells assessed as reduction in viral replication incubated 3 days and measured by bright Glo-luciferase reporter gene assay
[5] = Inhibition of HCV genotype 4a NS5A infected in Huh7 cells assessed as reduction in viral replication incubated 3 days and measured by bright Glo-luciferase reporter gene assay
[6] = Inhibition of HCV genotype 2a NS5A infected in Huh7 cells assessed as reduction in viral replication incubated 3 days and measured by bright Glo-luciferase reporter gene assay

In the case of COC(=O)N[C@H](C(=O)N1CCC[C@H]1c1ncc(-c2ccc(C#CC#Cc3cnc([C@@H]4CCCN4C(=O)[C@H](NC(=O)OC)c4ccccc4)[nH]3)c(-c3ccccc3)c2)[nH]1)C(C)C, the IC50 [1] is reported as 0.045 nM, the IC50 [2] is reported as 0.034 nM and the EC50 [3] is reported as 0.0029 nM. It also gave an IC50 [4] of 0.026 nM.
COC(=O)N[C@H](C(=O)N1CCC[C@H]1c1ncc(C#CC#Cc2ccc(-c3cnc([C@@H]4CCCN4C(=O)[C@H](NC(=O)OC)c4ccccc4)[nH]3)cc2)[nH]1)C(C)C gave an IC50 [1] of 0.21 nM, an IC50 [5] of 0.012 nM and an IC50 [2] of 0.629 nM. It also gave an IC50 [6] of 0.007 nM, an EC50 [3] of 0.006 nM and an IC50 [4] of 0.1 nM.
Molecule COC(=O)N[C@H](C(=O)N1CCC[C@H]1c1ncc(-c2ccc(C#CC#Cc3cnc([C@@H]4CCCN4C(=O)[C@H](NC(=O)OC)c4ccccc4)[nH]3)c(-c3ccc(N4CCN(C)CC4)cc3)c2)[nH]1)C(C)C has an IC50 [1] of 0.113 nM, an IC50 [5] of 0.548 nM and an IC50 [2] of 0.353 nM. It also gave an IC50 [6] of 0.023 nM, an EC50 [3] of 0.004 nM and an IC50 [4] of 1.4 nM.
Molecule COC(=O)N[C@H](C(=O)N1CCC[C@H]1c1ncc(-c2ccc(C#CC#Cc3cnc([C@@H]4CCCN4C(=O)[C@H](NC(=O)OC)c4ccccc4)[nH]3)c(-c3ccc(C(C)(C)C)cc3)c2)[nH]1)C(C)C has an IC50 [1] of 2.3 nM, an IC50 [5] of 0.01 nM and an IC50 [2] of 0.362 nM. The IC50 [4] was 0.693 nM.
COC(=O)N[C@H](C(=O)N1CCC[C@H]1c1ncc(C#CC#Cc2ccc(-c3cnc([C@@H]4CCCN4C(=O)[C@@H](NC(=O)OC)C(C)C)[nH]3)cc2-c2ccc3ccccc3c2)[nH]1)C(C)C gave an IC50 [1] of 0.248 nM, an IC50 [5] of 0.008 nM and an IC50 [2] of 0.864 nM. It also gave an IC50 [6] of 0.028 nM and an IC50 [4] of 0.267 nM.
Work on COC(=O)N[C@H](C(=O)N1CCC[C@H]1c1ncc(-c2ccc(C#CC#Cc3cnc([C@@H]4CCCN4C(=O)[C@H](NC(=O)OC)c4ccccc4)[nH]3)c(-c3ccc(N(C)C)cc3)c2)[nH]1)C(C)C yielded an IC50 [1] of 0.138 nM, an IC50 [5] of 0.011 nM and an IC50 [2] of 0.038 nM. The IC50 [6] was 0.013 nM and the IC50 [4] was 0.052 nM.
In the case of COC(=O)N[C@H](C(=O)N1CCC[C@H]1c1ncc(C#CC#Cc2ccc(-c3cnc([C@@H]4CCCN4C(=O)[C@@H](NC(=O)OC)C(C)C)[nH]3)cc2-c2ccc(C(C)(C)C)cc2)[nH]1)C(C)C, the IC50 [1] is reported as 0.642 nM, the IC50 [5] is reported as 0.011 nM and the IC50 [2] is reported as 1.29 nM. For the same molecule, the IC50 [6] was 1.68 nM and the IC50 [4] was 0.356 nM.
Work on COC(=O)N[C@H](C(=O)N1CCC[C@H]1c1ncc(-c2ccc(C#CC#Cc3cnc([C@@H]4CCCN4C(=O)[C@H](NC(=O)OC)c4ccccc4)[nH]3)c(-c3cccc(C(C)(C)C)c3)c2)[nH]1)C(C)C yielded an IC50 [1] of 1.07 nM, an IC50 [5] of 0.007 nM and an IC50 [2] of 0.093 nM. The IC50 [6] was 0.104 nM and the IC50 [4] was 0.107 nM.
COC(=O)N[C@H](C(=O)N1CCC[C@H]1c1ncc(-c2ccc(C#CC#Cc3cnc([C@@H]4CCCN4C(=O)[C@H](NC(=O)OC)c4ccccc4)[nH]3)c(N(C)c3ccccc3)c2)[nH]1)C(C)C showed an IC50 [1] of 0.072 nM, an IC50 [5] of 0.011 nM and an IC50 [2] of 0.035 nM. For the same molecule, the IC50 [6] was 0.011 nM and the IC50 [4] was 0.027 nM.
In the case of COC(=O)N[C@H](C(=O)N1CCC[C@H]1c1ncc(C#CC#Cc2ccc(-c3cnc([C@@H]4CCCN4C(=O)[C@@H](NC(=O)OC)C(C)C)[nH]3)cc2-c2ccccc2)[nH]1)C(C)C, the IC50 [1] is reported as 0.072 nM, the IC50 [5] is reported as 0.007 nM and the IC50 [2] is reported as 1.31 nM. For the same molecule, the IC50 [6] was 0.03 nM, the EC50 [3] was 0.002 nM and the IC50 [4] was 0.129 nM.
For COC(=O)N[C@H](C(=O)N1CCC[C@H]1c1ncc(-c2ccc(C#CC#Cc3cnc([C@@H]4CCCN4C(=O)[C@H](NC(=O)OC)c4ccccc4)[nH]3)c(-c3ccc(-c4ccccc4)cc3)c2)[nH]1)C(C)C, the IC50 [1] was 0.418 nM, the IC50 [5] was 0.006 nM and the IC50 [2] was 0.064 nM. The IC50 [4] was 0.131 nM.
COC(=O)N[C@H](C(=O)N1CCC[C@H]1c1ncc(-c2ccc(C#CC#Cc3cnc([C@@H]4CCCN4C(=O)[C@H](NC(=O)OC)c4ccccc4)[nH]3)c(-c3cccc(F)c3F)c2)[nH]1)C(C)C showed an IC50 [1] of 0.028 nM, an IC50 [2] of 0.016 nM and an IC50 [6] of 0.001 nM. For the same molecule, the IC50 [4] was 0.019 nM.
Molecule COC(=O)N[C@H](C(=O)N1CCC[C@H]1c1ncc(-c2ccc(C#CC#Cc3cnc([C@@H]4CCCN4C(=O)[C@@H](NC(=O)OC)C(C)C)[nH]3)cc2)[nH]1)c1ccccc1 has an IC50 [1] of 1.34 nM, an IC50 [5] of 0.123 nM and an IC50 [2] of 4.92 nM. It also gave an IC50 [6] of 0.12 nM, an EC50 [3] of 0.012 nM and an IC50 [4] of 0.2 nM.
With COC(=O)N[C@H](C(=O)N1CCC[C@H]1c1ncc(C#CC#Cc2c(C)cc(-c3cnc([C@@H]4CCCN4C(=O)[C@@H](NC(=O)OC)C(C)C)[nH]3)cc2-c2ccccc2)[nH]1)C(C)C the IC50 [1] was 0.037 nM, the IC50 [5] was 0.006 nM and the IC50 [2] was 0.364 nM. It also gave an IC50 [6] of 0.008 nM and an IC50 [4] of 0.027 nM.
Molecule COC(=O)N[C@H](C(=O)N1CCC[C@H]1c1ncc(-c2cc(F)c(C#CC#Cc3cnc([C@@H]4CCCN4C(=O)[C@H](NC(=O)OC)c4ccccc4)[nH]3)c(-c3ccccc3)c2)[nH]1)C(C)C has an IC50 [1] of 0.051 nM, an IC50 [5] of 0.012 nM and an IC50 [2] of 0.02 nM. For the same molecule, the IC50 [6] was 0.005 nM and the IC50 [4] was 0.026 nM.
In the case of COC(=O)N[C@H](C(=O)N1CCC[C@H]1c1ncc(-c2ccc(C#CC#Cc3cnc([C@@H]4CCCN4C(=O)[C@H](NC(=O)OC)c4ccccc4)[nH]3)c(Oc3ccccc3)c2)[nH]1)C(C)C, the IC50 [1] is reported as 0.214 nM, the IC50 [5] is reported as 0.008 nM and the IC50 [2] is reported as 0.04 nM. The IC50 [6] was 0.013 nM and the IC50 [4] was 0.019 nM.
COC(=O)N[C@H](C(=O)N1CCC[C@H]1c1ncc(C#CC#Cc2ccc(-c3cnc([C@@H]4CCCN4C(=O)[C@@H](NC(=O)OC)C(C)C)[nH]3)cc2-c2cccc(-c3ccccc3)c2)[nH]1)C(C)C gave an IC50 [1] of 0.47 nM, an IC50 [5] of 0.019 nM and an IC50 [2] of 2.79 nM. It also gave an IC50 [6] of 0.449 nM and an IC50 [4] of 0.763 nM.
COC(=O)N[C@H](C(=O)N1CCC[C@H]1c1ncc(-c2ccc(C#CC#Cc3cnc([C@@H]4CCCN4C(=O)[C@H](NC(=O)OC)c4ccccc4)[nH]3)c(-c3cccc(-c4ccccc4)c3)c2)[nH]1)C(C)C showed an IC50 [1] of 0.626 nM, an IC50 [5] of 0.011 nM and an IC50 [2] of 0.123 nM. It also gave an IC50 [6] of 0.033 nM and an IC50 [4] of 0.122 nM.
Molecule COC(=O)N[C@H](C(=O)N1CCC[C@H]1c1ncc(C#CC#Cc2ccc(-c3cnc([C@@H]4CCCN4C(=O)[C@@H](NC(=O)OC)C(C)C)[nH]3)cc2)[nH]1)c1ccccc1 has an IC50 [1] of 0.758 nM, an IC50 [5] of 0.423 nM and an IC50 [2] of 10.7 nM. The IC50 [6] was 0.431 nM, the EC50 [3] was 0.012 nM and the IC50 [4] was 6.4 nM.
COC(=O)N[C@H](C(=O)N1CCC[C@H]1c1ncc(-c2ccc(C#CC#Cc3cnc([C@@H]4CCCN4C(=O)[C@H](NC(=O)OC)c4ccccc4)[nH]3)cc2)[nH]1)C(C)C gave an IC50 [1] of 0.276 nM, an IC50 [5] of 0.036 nM and an IC50 [2] of 0.329 nM. For the same molecule, the IC50 [6] was 0.016 nM, the EC50 [3] was 0.007 nM and the IC50 [4] was 0.126 nM.
With COC(=O)N[C@H](C(=O)N1CCC[C@H]1c1ncc(-c2ccc(C#CC#Cc3cnc([C@@H]4CCCN4C(=O)[C@H](NC(=O)OC)c4ccccc4)[nH]3)c(Sc3ccccc3)c2)[nH]1)C(C)C the IC50 [1] was 0.257 nM, the IC50 [5] was 0.009 nM and the IC50 [2] was 0.091 nM. It also gave an IC50 [6] of 0.014 nM and an IC50 [4] of 0.035 nM.
Work on COC(=O)N[C@H](C(=O)N1CCC[C@H]1c1ncc(-c2cc(C)c(C#CC#Cc3cnc([C@@H]4CCCN4C(=O)[C@H](NC(=O)OC)c4ccccc4)[nH]3)c(-c3ccccc3)c2)[nH]1)C(C)C yielded an IC50 [1] of 0.124 nM, an IC50 [5] of 0.01 nM and an IC50 [2] of 0.026 nM. It also gave an IC50 [6] of 0.003 nM.
Work on COC(=O)N[C@H](C(=O)N1CCC[C@H]1c1ncc(-c2ccc(C#CC#Cc3cnc([C@@H]4CCCN4C(=O)[C@H](NC(=O)OC)c4ccccc4)[nH]3)c(N3CCN(C)CC3)c2)[nH]1)C(C)C yielded an IC50 [1] of 0.473 nM, an IC50 [5] of over 10 nM and an IC50 [2] of over 10 nM. The IC50 [6] was 0.143 nM, the EC50 [3] was 0.034 nM and the IC50 [4] was 3.1 nM.
Work on COC(=O)N[C@H](C(=O)N1CCC[C@H]1c1ncc(C#CC#Cc2c(F)cc(-c3cnc([C@@H]4CCCN4C(=O)[C@@H](NC(=O)OC)C(C)C)[nH]3)cc2-c2ccccc2)[nH]1)C(C)C yielded an IC50 [1] of 0.064 nM, an IC50 [5] of 0.019 nM and an IC50 [2] of 0.459 nM. The IC50 [6] was 0.015 nM and the IC50 [4] was 0.12 nM.
